Experimental data from paper PMC10385416, “Iron-Gallic Acid Peptide Nanoparticles as a Versatile Platform for Cellular Delivery with Synergistic ROS Enhancement Effect” (Pharmaceutics, 2023).
Ends that are not written are not given here. Peptide text beside a SMILES is read from it.

Key:
[1] = Methylene blue assay of HO• production (Fenton reaction); conditions: pH 4, H2O2, same Fe content (36 µg Fe3+), UV-Vis every 5 min over 6 h
Procedure: MB assays were used to measure the HO^• production efficacy of IGPNs. IGPNs (36 µg Fe^3+) were mixed with MB (1.5 mL, 10 µg L^−1) and H2O2 (1 mL), and H2O was added to a final volume of 3 mL. The absorbance at 664 nm was recorded with a Cary 3500 UV–Vis Spectrophotometer every 5 min over 6 h.
To verify the hypothesized Fenton reaction of IGPNs, H2O2 was used as a source of hydroxyl radicals (HO^•) and to simulate the tumor microenvironment. The generation of HO^• and degradation of methylene blue (MB) upon exposure to H2O2 and different samples adjusted to the same Fe content (IGPNs or FeCl3 solution) was monitored by UV–Vis spectrometry. At pH 4 (Figure 7A), the decrease of absorbance at 664 nm was accelerated in the presence of Fe-A4**, FePVP-A4**, or Fe^3+. At the favorable acidic pH, no differences in reaction rates were observed between IGPNs and Fe^3+, since the content of Fe^3+ is obviously sufficient to drive the reaction under these conditions. In contrast, at pH 7.4, the absorbance decline was clearly more pronounced in case of IGPNs (Figure 7B). This phenomenon could be explained by an accelerated conversion of Fe^3+ to Fe^2+ in the presence of GA.

HeLa cells = assay: Cell viability (CellTiter-Glo assay), HeLa; type: cell-based, human; conditions: 10 μM, 72 h
Procedure: The CellTiter-Glo® Luminescent Cell Viability Assay was performed to determine the viability of HeLa or N2a cells after treatment with IGPNs or the individual components. One day prior to the treatments, HeLa or N2a cells were seeded into 96-well plates at a density of 5000 cells/well. On the next day, the medium in each well was replaced with 90 μL of fresh medium, and 10 μL of nanoparticles or control solutions (free peptides, Fe, FePVP) was added to each well corresponding to the specified final concentrations of the peptide or Fe^3+, respectively. The supernatant was removed after 72 h incubation, and 25 µL of medium as well as 25 µL of CellTiter-Glo reagent were added to each well. The plate was gently agitated for 30 min at RT, and the luminescence signal (relative light units, RLU) was recorded by a Centro LB 960 plate reader luminometer (Berthold Technologies, Bad Wildbad, Germany). The relative cell viability (in percentage) was calculated relative to control wells treated with HBG buffer as ([RLU] test/[RLU] control) × 100%. All experiments were performed in triplicate.

| Compound | decrease of methylene blue absorbance at 664 nm (HO• generation) at pH 4 [1] | cytotoxicity / tolerability in words (HeLa cells) |
| --- | --- | --- |
| O.O.O.O.O.O.[Cl-].[Cl-].[Cl-].[Fe+3] [Fe^3+, iron (III) chloride hexahydrate] | accelerated |  |
| NCCCC[C@H](NC(=O)[C@@H]1CCCN1C(=O)[C@@H](N)CCC(N)=O)C(=O)O [SIO] (H-Gln-Pro-Lys-OH) |  | not able to mediate significant cytotoxicity |
| AVPIAQK [AVP] |  | not able to mediate significant cytotoxicity |
